Measurements from the NIST ThermoML archive (doi:10.1016/j.fluid.2011.02.008).
Where “and” joins values, the source holds several entries; their conditions need not be identical. Equal values may be shown once. Numbers after ± are expanded uncertainties.

Conditions: Liquid, Closed cell (Static) method

O=S=O [sulfur dioxide]
vapor or sublimation pressure (343.15 K): 1479 ± 5 kPa and 1469 ± 24 kPa | vapor or sublimation pressure (373.15 K): 2883 ± 9 kPa | vapor or sublimation pressure (413.15 K): 5836 ± 18 kPa and 5978 ± 32 kPa
